# Where a name gives a salt, the structure may show the parent alone.
# B1: Fox2 protein: highly purified recombinant Flag-Fox2 added to RNAs before splicing reaction (protein, UniProt O43251 1-390, looked up)
# RNA binding protein fox-1 …: MQNEPLTPGYHGFPARDSQGNQEPTTTPDAMVQPFTTIPFPPPPQNGIPTEYGVPHTQDYAGQTGEHNLTLYGSTQAHGEQSSNSPSTQNGSLTTEGGAQTDGQQSQTQSSENSESKSTPKRLHVSNIPFRFRDPDLRQMFGQFGKILDVEIIFNERGSKGFGFVTFENSADADRAREKLHGTVVEGRKIEVNNATARVMTNKKMVTPYANGWKLSPVVGAVYGPELYAASSFQADVSLGNDAAVPLSGRGGINTYIPLISLPLVPGFPYPTAATTAAAFRGAHLRGRGRTVYGAVRAVPPTAIPAYPGVVYQDGFYGADLYGGYAAYRYAQPATATAATAAAAAAAAYSDGYGRVYTADPYHALAPAASYGVGAVASLYRGGYSRFAPY
# modifications: Flag tag
# Tested on: mouse FGFR2 exon 8 RNA probe (U1 snRNA binding)
# Assay: In vitro exon-recognition assay, exon 8 probe
# Type: biochemical
# Details: HeLa nuclear extract, UV crosslinking
# Description: (§1) A mutated DNA template of 3′ ss in intron 8 and 5′ ss in intron 9 was prepared from mutated reporter vectors as shown in FIG. 3A. The RNA substrates were labeled with ^32P by in vitro T7 transcription. In vitro splicing reaction and UV cross linking were performed under the conditions described by Sawa [Sawa H, Shimura Y (1992) Genes Dev 6: 244-254.]. To identify the shifted bands by UV cross linking, pre-heated cDNA oligo (10 microgram/mL) for U1 (5′-[…]-3′/SEQ ID NO:38) or U2 (5′-[…]-3′/SEQ ID NO:39) was added to the RNAs after UV cross linking, and the U1 or U2 cDNA oligo/RNAs mixture were digested with 50 U/mL of RNase H at 30 degrees C. for 10 min. In FIG. 5C, highly purified Flag-Fox2 and Flag-ESRP1 were added to RNAs and incubated at room temperature for 5 min before splicing reaction to examine their inhibitory or activating effects on exon recognition of U1 snRNA or U2 snRNA. After these reactions, RNAs were subjected to denaturing PAGE analysis and autoradiography.
# (§2) Next, the present inventors tested whether Fox and/or ESRP cause switching from exon 9 to exon 8 through interruption of exon 9 recognition. The present inventors examined this under the in vitro splicing conditions using ^32P-labeled RNA probe of exon 9 with introns containing UGCAUG and ISE/ISS-3 sites (FIG. 10C, top panel) and the exon 8 RNA probe of same stretches. […]
row,suppressive or activating effect on exon recognition,Molecule
1,not obvious,B1

# Tested on: alternative splicing of a specific gene (GFP/RFP reporter)
# Assay: Compound screen with GFP/RFP alternative splicing reporter
# Type: cell-based
# Details: not given
# Text: Strategy of a method for testing whether or not a compound to be tested affects an alternative splicing of a specific gene in a mammalian multicelluar organism is shown in FIG. 14.
# The reporter proteins used for the method are GFP and FRP.
Number of cells,Molecule,GFP/RFP (Ctrl = 1),"cell count per well (c9; column head not printed in these continuation tables, meaning inferred)",ratio in column 11 (head not shown in this continuation table; table sorted by it in descending order; apparently GFP/RFP reporter ratio),"count per well with compound (column 9, head not shown; probably cell number; c10 = plate reference)","reporter fluorescence ratio relative to control (last column of Table 4, head not shown; table sorted by this value)"
–,N.N.O=C([O-])C1(C(=O)[O-])CCC1.[Pt+2] [Carboplatin],1.875,–,–,–,–
2356,Cc1cn([C@H]2C[C@H](N=[N+]=[N-])[C@@H](CO)O2)c(=O)[nH]c1=O (racemic) [3′-azido-3′-deoxythymidine],–,–,–,–,–
3625,Cc1cc2c(OCC(CNC(C)(C)C)OC(=O)c3ccccc3)cccc2[nH]1.O=C(O)CC(=O)O (stereo not shown) [Bopindolol malonate],–,–,–,–,–
4210,NC[C@H](O)c1ccc(O)c(O)c1.O=C(O)C(O)C(O)C(=O)O [Norepinephrine-(+)-tartrate l (−)],–,–,–,–,–
3009,COc1cc2c(cc1OC)-c1c/c(=N\c3c(C)cc(C)cc3C)n(C)c(=O)n1CC2 [Trequinsin],–,–,–,–,–
4053,Salbutamol sulfate,–,–,–,–,–
–,Apomorphine r (−),1.357,–,–,–,–
3060,Cc1ccc(-c2cc(C(F)(F)F)nn2-c2ccc(S(N)(=O)=O)cc2)cc1 (racemic) [Celecoxib],–,–,–,–,–
2622,O=C1CCC(N2C(=O)c3ccccc3C2=O)C(=O)N1 (stereo not shown) [Thaldomide],–,–,–,–,–
–,O=P1(N(CCCl)CCCl)NCCCO1 (stereo not shown) [Cyclophosphamide monohydrate],–,3065,–,–,–
–,CC[C@@]1(O)C(=O)OCc2c1cc1n(c2=O)Cc2cc3cc(O)ccc3nc2-1 [10-hydroxycamptothecin],3.114,–,–,–,–
4151,CCC(NC(C)C)C(O)c1ccc(O)c2[nH]c(=O)ccc12 (stereo not shown) [Procaterol hcl],–,–,–,–,–
–,N[C@@H]1C[C@H]1c1ccccc1 (racemic) [Tranylcypromine],–,–,0.7492,–,–
2966,CCc1nn(CCCN2CCN(c3cccc(Cl)c3)CC2)c(=O)n1CCOc1ccccc1 (racemic) [Nefazodone],–,–,–,–,–
2109,COc1cc2nc(N3CCN(C(=O)c4ccco4)CC3)nc(N)c2cc1OC [Prazosin HCl],–,–,–,–,–
2564,CC(C)CN(C[C@@H](O)[C@H](Cc1ccccc1)NC(=O)O[C@H]1CCOC1)S(=O)(=O)c1ccc(N)cc1 (racemic) [Amprenavir],–,–,–,–,–
–,CCCC(=O)OCC[N+](C)(C)C.[Cl-] [Butyrylcholine Cl],–,–,–,4016,1.016
3470,C[C@@](Cc1ccc(O)c(O)c1)(NN)C(=O)O [Carbidopa],–,–,–,–,–

Molecule,Number of cells,GFP/RFP (Ctrl = 1),"cell count per well (c9; column head not printed in these continuation tables, meaning inferred)",ratio in column 11 (head not shown in this continuation table; table sorted by it in descending order; apparently GFP/RFP reporter ratio),"count per well with compound (column 9, head not shown; probably cell number; c10 = plate reference)","reporter fluorescence ratio relative to control (last column of Table 4, head not shown; table sorted by this value)"
Cl.Cl.O=C1c2c(O)ccc(O)c2C(=O)c2c(NCCNCCO)ccc(NCCNCCO)c21 [Mitoxantrone 2HCl],31,–,–,–,–,–

# Same assay, conditions: 50 ng/mL
row,Number of cells,Molecule
1,1482,Nc1ncnc2c1ncn2[C@@H]1O[C@H](CO)[C@@H](O)[C@@H]1O (racemic) [Vidarabine]
2,31,CCN(CC)C(=S)SSC(=S)N(CC)CC (racemic) [Disulfiram]
3,278,COC(=O)Nc1nc2ccc(Sc3ccccc3)cc2[nH]1 (racemic) [Fenbendazole]
4,850,Clc1ccc(C(Cn2ccnc2)OCc2ccsc2Cl)c(Cl)c1 (racemic) [Tioconazole]
5,3018,CC(C)C(=O)c1c(C(C)C)nn2ccccc12 (racemic) [Ibudilast]
6,156,COC(=O)C1=C(C)NC(C)=C(C(=O)OC)C1c1ccccc1[N+](=O)[O-] [Nifedipine]
7,116,CCOC(=O)C1=C(C)NC(C)=C(C(=O)OC)C1c1cccc(Cl)c1Cl (stereo not shown) [Felodipine]
8,433,O=c1[nH]cc(F)c(=O)[nH]1 (racemic) [5-fluorouracil]
9,34,CC(=O)[C@]1(O)Cc2c(O)c3c(c(O)c2[C@@H](O[C@H]2C[C@H](N)[C@H](O)[C@H](C)O2)C1)C(=O)c1ccccc1C3=O (racemic) [Idarubicin]
10,921,c1ccc(-c2ccc(C(c3ccccc3)n3ccnc3)cc2)cc1 (racemic) [Bifonazole]
11,1863,Clc1ccc(C(Cn2ccnc2)OCc2csc3c(Cl)cccc23)c(Cl)c1 (racemic) [Sertaconazole]
12,719,CC(=O)O[C@H]1C(=O)[C@@]2(C)[C@H]([C@H](OC(=O)c3ccccc3)[C@]3(O)C[C@H](OC(=O)[C@H](O)[C@@H](NC(=O)c4ccccc4)c4ccccc4)C(C)=C1C3(C)C)[C@]1(OC(C)=O)CO[C@@H]1C[C@@H]2O [Taxol]
13,74,CC(C)C[C@H](NC(=O)[C@H](Cc1ccccc1)NC(=O)c1cnccn1)B(O)O (racemic) [Bortezomib]
14,48,Nc1ccn([C@@H]2O[C@H](CO)[C@@H](O)[C@@H]2O)c(=O)n1 (racemic) [Cytarabine]
15,2641,CC(C)NCC(O)COc1cccc2ccccc12 (stereo not shown) [Propranolol]
16,3029,C[C@@H]1CN(c2c(F)c(N)c3c(=O)c(C(=O)O)cn(C4CC4)c3c2F)C[C@H](C)N1 [Sparfloxacin]
17,2876,COc1ncnc(NS(=O)(=O)c2ccc(N)cc2)c1OC (racemic) [Sulfadoxine]
18,3056,COc1ccc(CC2c3cc(OC)c(OC)cc3CC[N+]2(C)CCC(=O)OCCCCCOC(=O)CC[N+]2(C)CCc3cc(OC)c(OC)cc3C2Cc2ccc(OC)c(OC)c2)cc1OC (racemic) [Atracurium besylate]
19,2732,Clc1ccc(CO/N=C(\Cn2ccnc2)c2ccc(Cl)cc2Cl)c(Cl)c1 (racemic) [Oxiconazole nitrate]
20,3505,CCCCC[C@H](O)/C=C/[C@H]1[C@H](O)CC(=O)[C@@H]1CCCCCCC(=O)O [Alprostadil]
21,1944,CC(C)Cn1cnc2c(N)nc3ccccc3c21 (racemic) [Imiquimod]
22,142,O=c1[nH]c(=O)n([C@H]2C[C@H](O)[C@@H](CO)O2)cc1F (racemic) [Floxuridine]

# Same assay, conditions: cell count after compound at final conc.; Ctrl number of cells 4303-5627
row,Molecule,Number of cells
1,N.N.O=C([O-])C1(C(=O)[O-])CCC1.[Pt+2] [Carboplatin],1373
2,CO[C@H]1C[C@@H]2CC[C@@H](C)[C@@](O)(O2)C(=O)C(=O)N2CCCC[C@H]2C(=O)O[C@H]([C@H](C)C[C@@H]2CC[C@@H](O)[C@H](OC)C2)CC(=O)[C@H](C)/C=C(\C)[C@@H](O)[C@@H](OC)C(=O)[C@H](C)C[C@H](C)/C=C/C=C/C=C/1C [Rapamycin],2046
3,COc1cc(CNC(=O)CCCC/C=C/C(C)C)ccc1O [Capsaicin],1918
4,Cc1nc(C)c(Cl)c(O)c1Cl (racemic) [Clopidol],3230
5,Apomorphine r (−),3372
6,CCC[S+]([O-])c1ccc2[nH]c(NC(=O)OC)nc2c1 (racemic) [Ricobendazole],1381
7,N[C@@H](Cc1ccc(N(CCCl)CCCl)cc1)C(=O)O (racemic) [Melphalan],483
8,CCCOc1ccc2nc(NC(=O)OC)[nH]c2c1 (racemic) [Oxibendazole],786
9,CC[C@@]1(O)C(=O)OCc2c1cc1n(c2=O)Cc2cc3cc(O)ccc3nc2-1 [10-hydroxycamptothecin],541
10,COC(=O)N/N=C/c1c[n+]([O-])c2ccccc2[n+]1[O-] (racemic) [Carbadox],2293
11,COc1ccc(C2CNC(=O)C2)cc1OC1CCCC1 (stereo not shown) [Rolipram],2878
12,C[C@]12CC[C@@H]3c4ccc(O)cc4C[C@@H](CCCCCCCCC[S+]([O-])CCCC(F)(F)C(F)(F)F)[C@H]3[C@@H]1CC[C@@H]2O (mixture of isomers) [Fulvestrant],2156

# Same assay, conditions: reporter ratio relative to control = 1; final conc. per compound (μM, 50 ng/mL)
row,Molecule,GFP/RFP (Ctrl = 1)
1,Cc1cc2c(OCC(CNC(C)(C)C)OC(=O)c3ccccc3)cccc2[nH]1.O=C(O)CC(=O)O (stereo not shown) [Bopindolol malonate],1.265
2,NC[C@H](O)c1ccc(O)c(O)c1.O=C(O)C(O)C(O)C(=O)O [Norepinephrine-(+)-tartrate l (−)],1.594
3,Salbutamol sulfate,1.295
4,O=C1CCC(N2C(=O)c3ccccc3C2=O)C(=O)N1 (stereo not shown) [Thaldomide],1.271
5,Cl.Cl.O=C1c2c(O)ccc(O)c2C(=O)c2c(NCCNCCO)ccc(NCCNCCO)c21 [Mitoxantrone 2HCl],2.651

# Tested on: mouse FGFR2 exon 9 RNA probe (U1 and U2 snRNA binding)
# Assay: In vitro exon-recognition assay, exon 9 probe
# Type: biochemical
# Details: HeLa nuclear extract, UV crosslinking
# Description: as §1, §2
row,shifted bands by U1 and U2 snRNA,Molecule
1,decreased,B1
